From US12162836B2, “N-acyl-{4-[(4-aryl-phenyl)sulfonylmethyl]piperidine} compounds and their therapeutic use” (Modern Biosciences Limited, priority 2019, dated 2024)
≈ marks a conversion by molar mass, not a printed value.

Columns and labels:
[1] = Aqueous solubility in FaSSIF; type: physicochemical; settings: for solubility at 16 h: kinetic from dmso stock, pH 6.5, 16 hours, room temperature
Description: Aqueous solubility was measured by equilibration of compounds with fasted state simulated intestinal fluid (FaSSIF) and quantified spectrophotometrically.
Preparation of blank FaSSIF: 0.21 g of sodium hydroxide (NaOH) pellets, 1.97 g of dihydrogen sodium phosphate (NaH2PO4.2H2O) and 3.09 g of sodium chloride (NaCl) were dissolved in 400 mL of deionised water. The pH was adjusted to 6.5 using 1 M hydrochloric acid and further deionised water added to a final volume of 500 mL.
Preparation of FaSSIF: 0.056 g of SIF Powder (containing sodium taurocholate and lecithin) (Pharses A G) was dissolved in 25 mL of blank FaSSIF and stirred until the powder was completely dissolved. The solution was allowed to stand for 2 hours during which it became opalescent; it was used within 24 hours. The final solution composition was characterised as follows: • Sodium taurocholate: 3 mM • Lecithin: 0.75 mM • Osmolarity: 270±10 mOsmol • pH: 6.5
The optical density was measured at the end of the incubation period for test compounds and a reference used to determine solubility. In brief, two samples were prepared for each determination: a reference sample consisting of a stock solution of test compound in DMSO diluted in system solution (a phosphate free, low absorption buffer) and propanol; and a test sample (prepared in triplicate) consisting of 0.5 mL FaSSIF spiked with test compound at 0.2 mM. Each sample was incubated at room temperature for 16 hours with constant shaking at 250 rpm. At the end of the incubation period, 0.3 mL of each sample was filtered through a pION filter plate (PION, Woburn MA), diluted 1:1 with propanol and scanned using UV spectrophotometry at Amax ([…]) using a Spectra Max Plus—Version 2.1000 (Molecular Devices, Sunnyvale, CA), with pSOL Explorer solubility determination software (pION, Woburn, MA).
FaSSIF solubility was calculated using the following formula:
[formula] • wherein: • “OD” is the optical density; • “Cr” is the concentration of the reference (33.4 μM); and • “molecular weight” is for the test compound (e.g., 381.44 for ABD735).

human hepatocytes = assay: Human Hepatocyte Stability; type: in vitro ADME; settings: for metabolic stability (in words): human hepatocytes
Description: (§1) Metabolic stability of test compounds was measured by determination of the rate of disappearance of the compound when incubated in the presence of human hepatocytes, a primary source of the most important enzymes (cytochrome P450s) involved in drug metabolism. Study of drug stability in the presence of primary hepatocytes is accepted as a valuable model permitting rapid prediction of in vivo drug stability.
(§2) Human hepatocytes were obtained from a commercial source and viability was assessed using a trypan blue solution prior to use. Test compounds (final concentration 1 μM, 0.1 DMSO, 0.9% acetonitrile) or a marker (diclofenac or diltiazem, final assay concentration 1 μM, 0.1% DMSO, 0.9% acetonitrile) were incubated with pooled hepatocytes for a 60 minute period and samples removed at up to 6 time points and analysed by LC-MS/MS for the presence/amount of test compounds.
(§3) Each compound was incubated for 0, 5, 15, 30, 45, or 60 minutes. The reactions were stopped by the addition of methanol containing an internal standard (1 μM Tolbutamide) at the appropriate time points, mixed and placed at −20° C. for 1 hour to quench and allow protein to precipitate. All samples were centrifuged (2500× g, 20 minutes, 4° C.). The aliquots were analysed using LC-MS/MS. Reactions were performed in duplicate at 37° C.
(§4) Data were processed, and the results plotted as In(concentration) vs. time. The elimination rate constant (slope of the regression line, k) was calculated using the following formula, where C(t) is the concentration at time t and C(0) is the starting concentration:
(§5) The half-life (t1/2) was calculated using the following formula: […]
(§6) The intrinsic clearance (Clint) was calculated using the following formula, where [cell] is the hepatocyte concentration in the assay: […]

[2] = tested on: Thp1 human monocytic cells; assay: Thp1 Monocyte ATP Production Assay (ATPlite); type: cell-based; settings: Thp1 cells, 24 hour incubation, mean of 2 independent experiments
Description: In vitro potency of test compounds was determined by incubation with Thp1 human monocytic cells and subsequent determination of Adenosine TriPhosphate (ATP) levels using firefly luciferase.
ATP is present in all metabolically active cells. When cells lose integrity, their ability to synthesise ATP is rapidly lost. […] See, e.g., Kang et al., 2015; Jiang et al., 2013. Levels of ATP can be monitored using a system based on firefly (Photinus pyralis) luciferase (see, e.g., Auld et al., 2009) using commercially available kits. A system known as ATPlite™ was using to measure effects of the test compounds on cellular viability in vitro. This one-step assay system is an adenosine triphosphate (ATP) monitoring system based on the production of light caused by the reaction of ATP from the cells with added luciferase and D-luciferin, as illustrated in the reaction scheme below:
Thp1 cells were plated at 112500 cells per well in 125 μL RPMI-1640 (no glucose) with 1% FBS in 96-well plates. Test compounds were prepared as 100 mM solutions in DMSO. These stock solutions were diluted in DMSO and then diluted 1000× in culture medium (RPMI) before being added directly to the wells so as to give the desired final compound concentration. After a 24 hour incubation at 37° C./5% CO2, ATPLite™ (Perkin Elmer) was added to each well (1:10 v/v, 10 μL). The plate was then incubated at room temperature for 5 minutes and the emitted light was quantified on Viewlux with a measurement time of 0.3 seconds and binning 4×4.
The average results for each test compound were expressed as a percent (%) of the average control value reflecting cell viability. The average values across the concentrations tested were then plotted and the IC50 for was calculated by fitting the data to a 4-parameter IC50 equation using software from Graf it (Erithacus Software). Each experiment was repeated twice and the data are presented as the mean IC50 from both experiments.

hERG = hERG (Homo sapiens (Human), UniProt Q12809); assay: hERG Ion Channel binding assay (3H astemizole displacement); settings: human, membranes of HEK293 cells stably expressing hERG, pH 7.4, probe 3H astemizole (1.5 nM); 30 μM; displacement of 3H astemizole, hERG-HEK293 membranes
Description: The activity of the compounds against the hERG ion channel was tested using a binding assay in stably transfected Human Embryonic Kidney cells (hERG-HEK293). hERG-HEK293 cells were cultured in MEM medium (Invitrogen)+10% FBS, glutamine and non-essential amino acids at 37° C. To prepare membranes, cells were homogenised on ice, centrifuged at 650×g for 10 minutes at +4° C., and the resulting supernatant centrifuged at 48000×g for 10 minutes at +4° C. The pellet was resuspended in ice-cold 50 mM Tris-HCl buffer, 5 mM KCl (pH 8.5) and stored frozen in aliquots until use.
For binding assays, membranes were thawed, re-suspended in assay buffer (10 mM HEPES pH 7.4, 0.1% BSA, 5 mM potassium chloride, 0.8 mM magnesium chloride, 130 mM sodium chloride, 1 mM sodium-EGTA, 10 mM glucose) and incubated with ^3H astemizole (1.5 nM), and with or without test compound at 25° C. for 60 minutes. Binding was determined following filtration of the membranes and washing in Tris-HCl buffer by scintillation counting of ^3H astemizole.
The degree of binding of compounds to the hERG ion channel (%) was obtained by measuring the binding of ^3H astemizole and its displacement by test compound. A value of 0% indicates no binding and a value of 100% indicates complete displacement of the radiolabelled ligand.

[3] = Human Hepatocyte Stability; type: in vitro ADME; settings: pooled human hepatocytes, 1 μM, 60 minute incubation; for half-life at 1 μM: read-out: Human t1/2
Description: as §1, §2, §3, §4, §5, §6

[4] = pooled human hepatocytes, 1 μM, 60 minute incubation
[5] = Homo sapiens, THP-1, 9-point concentration range from 10 μM to 10 nM

Chain of hERG (Q12809 whole entry): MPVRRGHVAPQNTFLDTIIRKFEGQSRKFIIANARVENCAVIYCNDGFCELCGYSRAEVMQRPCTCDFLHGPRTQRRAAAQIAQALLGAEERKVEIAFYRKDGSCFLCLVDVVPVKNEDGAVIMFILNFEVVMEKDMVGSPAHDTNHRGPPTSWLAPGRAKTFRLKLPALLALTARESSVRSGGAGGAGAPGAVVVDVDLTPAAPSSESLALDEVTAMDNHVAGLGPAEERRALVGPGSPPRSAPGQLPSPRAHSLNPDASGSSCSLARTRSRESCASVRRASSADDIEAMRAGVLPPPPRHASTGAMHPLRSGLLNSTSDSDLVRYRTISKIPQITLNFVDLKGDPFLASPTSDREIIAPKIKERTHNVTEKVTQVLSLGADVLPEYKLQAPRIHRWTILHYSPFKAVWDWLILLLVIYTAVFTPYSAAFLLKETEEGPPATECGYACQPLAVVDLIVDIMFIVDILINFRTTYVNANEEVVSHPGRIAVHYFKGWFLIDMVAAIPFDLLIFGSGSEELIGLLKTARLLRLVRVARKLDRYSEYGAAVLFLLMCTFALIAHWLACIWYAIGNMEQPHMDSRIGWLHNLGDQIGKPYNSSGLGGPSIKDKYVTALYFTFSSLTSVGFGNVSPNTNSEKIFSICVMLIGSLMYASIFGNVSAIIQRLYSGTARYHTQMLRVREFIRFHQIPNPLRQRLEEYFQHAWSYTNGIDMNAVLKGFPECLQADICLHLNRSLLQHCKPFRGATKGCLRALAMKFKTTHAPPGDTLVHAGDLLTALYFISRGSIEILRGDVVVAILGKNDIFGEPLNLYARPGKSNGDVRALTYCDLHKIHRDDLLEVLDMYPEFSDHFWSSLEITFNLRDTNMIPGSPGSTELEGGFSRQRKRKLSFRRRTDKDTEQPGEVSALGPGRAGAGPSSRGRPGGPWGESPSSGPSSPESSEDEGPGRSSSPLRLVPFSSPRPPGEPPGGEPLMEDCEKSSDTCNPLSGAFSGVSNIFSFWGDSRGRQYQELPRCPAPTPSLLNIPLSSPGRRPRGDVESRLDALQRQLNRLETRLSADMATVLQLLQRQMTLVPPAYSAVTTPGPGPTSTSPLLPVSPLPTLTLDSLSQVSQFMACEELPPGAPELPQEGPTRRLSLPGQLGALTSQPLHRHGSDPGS

Structure (SMILES)	solubility at 16 h [1] [µg/mL]	hepatocyte CLint at 1 μM [3] [µL/min/1e6 cells]	half-life at 1 μM [3] [h]	metabolic stability (in words) (human hepatocytes)	IC50 [2, 5] [nM]	inhibition at 60 min, 30 µM (hERG) [%]	also measured
CC1(O)CCC(NS(=O)(=O)c2ccc(-c3ccc(F)cc3F)cc2)CC1 (stereo not shown) [ABD900, reference compound]							Solubility ([1]; pH 6.8): 120 µg/mL (≈ 315 µM); Human Clint (human hepatocytes; [4]): 6.3 uL/min/million cells; Human t1/2 (human hepatocytes; [4]): 3.67 h; IC50 ([2]; 9-point concentration range from 10 μM to 10 nM): 1100 nM
CC(=O)N1CCC(CS(=O)(=O)c2ccc(-c3ncc(F)cc3F)c(F)c2)CC1 [NASMP-11, 1-(4-(((4-(3,5-Difluoropyridin-2-yl)-3-fluorophenyl)sulfonyl)methyl)piperidin-1-yl)ethan-1-one]		3.3	> 1		1600		
CC(=O)N1CCC(CS(=O)(=O)c2ccc(-c3ccc(F)cc3F)c(C#N)c2)CC1 [NASMP-13, 4-(((1-Acetylpiperidin-4-yl)methyl)sulfonyl)-2′,4′-difluoro-[1,1′-biphenyl]-2-carbonitrile]					1700		
CC(=O)N1CCC(C)(CS(=O)(=O)c2ccc(-c3ccc(Cl)cc3C#N)cc2)CC1 [NASMP-16, 4′-(((1-Acetyl-4-methylpiperidin-4-yl)methyl)sulfonyl)-4-chloro-[1,1′-biphenyl]-2-carbonitrile]			> 1	exceptionally good stability	1500		
CC(=O)N1CCC(C(F)(F)S(=O)(=O)c2ccc(-c3ccc(F)cc3F)cc2)CC1 [NASMP-19, 1-(4-(((2′,4′-Difluoro-[1,1′-biphenyl]-4-yl)sulfonyl)difluoromethyl)piperidin-1-yl)ethan-1-one]	27 (≈ 62.9 µM)	11.7	1.92		2800	21	

Continued, in another order:

solubility at 16 h [1] [µg/mL]	hepatocyte CLint at 1 μM [3] [µL/min/1e6 cells]	half-life at 1 μM [3] [h]	metabolic stability (in words) (human hepatocytes)	IC50 [2, 5] [nM]	Structure (SMILES)	inhibition at 60 min, 30 µM (hERG) [%]	also measured
32 (≈ 81.3 µM)	< 3	> 7.67	exceptionally good stability	7900	CC(=O)N1CCC(CS(=O)(=O)c2ccc(-c3ccc(F)c(F)c3)cc2)CC1 [NASMP-02, 1-(4-(((3′,4′-Difluoro-[1,1′-biphenyl]-4-yl)sulfonyl)methyl)piperidin-1-yl)ethan-1-one]	30	
42 (≈ 107 µM)	< 3	> 7.67	exceptionally good stability	3000	CC(=O)N1CCC(CS(=O)(=O)c2ccc(-c3cc(F)ccc3F)cc2)CC1 [NASMP-03, 1-(4-(((2′,5′-Difluoro-[1,1′-biphenyl]-4-yl)sulfonyl)methyl)piperidin-1-yl)ethan-1-one]	20	
				1700	CC(=O)N1CCC(CS(=O)(=O)c2ccc(-c3ccc(C#N)cc3F)cc2)CC1 [NASMP-04, 4′-(((1-Acetylpiperidin-4-yl)methyl)sulfonyl)-2-fluoro-[1,1′-biphenyl]-4-carbonitrile]		
				3800	CC(=O)N1CCC(CS(=O)(=O)c2ccc(-c3cccc(F)c3F)cc2)CC1 [NASMP-08, 1-(4-(((2′,3′-Difluoro-[1,1′-biphenyl]-4-yl)sulfonyl)methyl)piperidin-1-yl)ethan-1-one]		
				3500	CC(=O)N1CCC(CS(=O)(=O)c2ccc(-c3ccc(C#N)cc3)c(F)c2)CC1 [NASMP-10, 4′-(((1-Acetylpiperidin-4-yl)methyl)sulfonyl)-2′-fluoro-[1,1′-biphenyl]-4-carbonitrile]		
	28.2	0.97		1400	CN(C)C(=O)N1CCC(CS(=O)(=O)c2ccc(-c3ccc(F)cc3F)cc2)CC1 [NASMP-14, 4-(((2′,4′-Difluoro-[1,1′-biphenyl]-4-yl)sulfonyl)methyl)-N,N-dimethylpiperidine-1-carboxamide]		
37 (≈ 94 µM)	< 3	> 7.67	exceptionally good stability		CC(=O)N1CCC(CS(=O)(=O)c2ccc(-c3cc(F)cc(F)c3)cc2)CC1 [NASMP-20, 1-(4-(((3′,5′-Difluoro-[1,1′-biphenyl]-4-yl)sulfonyl)methyl)piperidin-1-yl)ethan-1-one]	39	IC50 ([2]; Homo sapiens, THP-1, 8-point concentration range from 100 μM to 100 nM): 18100 nM
